Experimental data published in patent US20220160686A1, “MACROCYCLIC AZOLOPYRIDINE DERIVATIVES AS EED AND PRC2 MODULATORS” (Fulcrum Therapeutics, Inc., priority 2019, published 2022).

How the values were obtained:
EZH2/PRC2 complex = EZH2/PRC2 complex (Homo sapiens, UniProt O75530); assay: Histone methyltransferase assay (radioisotope-based HotSpot); type: biochemical; conditions: EZH2/PRC2 complex 10 nM, core histone substrate 0.05 mg/ml, 3H-SAM 1 μM; read-out: IC50, inhibitory effects on the HMT enzyme
EZH2/PRC2 complex, sequence (O75530 whole entry): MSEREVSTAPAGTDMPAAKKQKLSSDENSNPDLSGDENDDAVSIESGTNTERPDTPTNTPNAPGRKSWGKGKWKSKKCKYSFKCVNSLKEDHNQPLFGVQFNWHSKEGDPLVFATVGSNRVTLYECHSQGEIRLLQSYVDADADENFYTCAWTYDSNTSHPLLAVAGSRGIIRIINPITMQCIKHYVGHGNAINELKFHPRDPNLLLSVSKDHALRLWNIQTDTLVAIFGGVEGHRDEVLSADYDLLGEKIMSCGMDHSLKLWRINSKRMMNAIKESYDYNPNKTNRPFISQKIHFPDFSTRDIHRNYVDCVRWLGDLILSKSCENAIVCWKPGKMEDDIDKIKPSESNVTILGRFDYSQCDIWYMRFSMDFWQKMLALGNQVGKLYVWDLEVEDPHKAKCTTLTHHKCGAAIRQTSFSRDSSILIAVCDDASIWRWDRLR
EZH2/PRC2 complex, sequence (Q15910 whole entry partner): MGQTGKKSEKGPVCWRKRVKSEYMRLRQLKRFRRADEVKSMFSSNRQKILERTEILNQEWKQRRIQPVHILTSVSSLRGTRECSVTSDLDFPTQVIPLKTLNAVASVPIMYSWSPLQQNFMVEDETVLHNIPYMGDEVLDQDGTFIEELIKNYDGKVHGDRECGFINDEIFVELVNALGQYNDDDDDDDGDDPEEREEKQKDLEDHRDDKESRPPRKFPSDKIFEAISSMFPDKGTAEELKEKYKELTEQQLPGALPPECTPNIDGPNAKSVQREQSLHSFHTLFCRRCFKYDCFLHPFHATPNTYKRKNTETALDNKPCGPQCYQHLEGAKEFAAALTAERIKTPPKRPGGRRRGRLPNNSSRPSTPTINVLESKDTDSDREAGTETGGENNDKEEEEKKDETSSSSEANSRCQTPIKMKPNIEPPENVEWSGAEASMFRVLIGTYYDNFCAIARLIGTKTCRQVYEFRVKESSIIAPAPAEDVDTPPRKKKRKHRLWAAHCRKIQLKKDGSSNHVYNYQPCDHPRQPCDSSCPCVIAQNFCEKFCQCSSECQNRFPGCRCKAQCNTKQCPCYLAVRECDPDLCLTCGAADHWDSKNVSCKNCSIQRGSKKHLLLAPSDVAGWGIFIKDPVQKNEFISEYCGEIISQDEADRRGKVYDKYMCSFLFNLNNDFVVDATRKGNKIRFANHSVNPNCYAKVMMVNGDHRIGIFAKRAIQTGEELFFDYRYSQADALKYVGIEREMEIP
EZH2/PRC2 complex, sequence (Q15022 whole entry partner): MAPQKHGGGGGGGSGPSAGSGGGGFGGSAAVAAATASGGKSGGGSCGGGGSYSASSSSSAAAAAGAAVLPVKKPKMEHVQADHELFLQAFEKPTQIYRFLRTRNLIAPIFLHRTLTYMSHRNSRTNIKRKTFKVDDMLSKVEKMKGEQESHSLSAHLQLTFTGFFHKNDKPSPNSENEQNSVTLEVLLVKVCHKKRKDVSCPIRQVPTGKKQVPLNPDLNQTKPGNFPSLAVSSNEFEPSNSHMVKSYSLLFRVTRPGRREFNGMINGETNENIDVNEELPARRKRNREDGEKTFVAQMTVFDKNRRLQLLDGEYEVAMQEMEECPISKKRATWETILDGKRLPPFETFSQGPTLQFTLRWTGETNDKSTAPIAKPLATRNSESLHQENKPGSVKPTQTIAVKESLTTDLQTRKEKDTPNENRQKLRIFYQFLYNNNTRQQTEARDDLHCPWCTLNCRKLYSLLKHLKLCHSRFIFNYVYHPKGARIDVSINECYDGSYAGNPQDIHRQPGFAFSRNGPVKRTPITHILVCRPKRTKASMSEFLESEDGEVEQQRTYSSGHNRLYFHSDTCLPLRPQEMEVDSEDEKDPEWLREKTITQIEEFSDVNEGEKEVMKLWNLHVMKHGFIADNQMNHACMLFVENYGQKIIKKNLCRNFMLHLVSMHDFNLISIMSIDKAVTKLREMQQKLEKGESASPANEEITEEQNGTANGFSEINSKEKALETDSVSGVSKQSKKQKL
Protocol: Effect of compounds of the present disclosure on EZH2/PRC2 complex methyltransferase functional activity was measured using the radioisotope-based HotSpot assay described by Horiuchi, K. Y., et al. Assay Drug Dev Technol. 11(4):227-36 (2013). Briefly, compounds were prepared in a 10-point 3-fold serial dilution in DMSO from a 10 mM stock in ECHO qualified plate using Assist Plus (Integra Biosciences) liquid handler. […] Nanoliter quantities of each compound's concentration series were transferred into the enzyme/substrate mix using (Echo 550, LabCyte Inc. Sunnyvale, Calif.) acoustic dispenser and pre-incubated for 20 min at room temperature. The methylation reaction was initiated by the addition of 1 μl of 5 μM S-Adenosyl-L-[methyl-^3H]methionine (^3H-SAM) and incubated at 30° C. for 1 h. The final concentration of the EZH2/PRC2 complex, core histone substrate and ^3H-SAM were 10 nM, 0.05 mg/ml, and 1 μM respectively. The % activity of test samples were calculated with reference to positive (no compound) and negative (no EZH2/PRC2) controls on the plate using Excel (Microsoft). The resulting values were exported to Prism (GraphPad software) to generate concentration response curves and IC50 values using the four-parameter logistic equation.

[1] = biological target: T1, biotinylated AVI-tagged EED (76-441) (Homo sapiens, UniProt O75530); assay: EED binding SPR assay; conditions: 1:1 binding model; read-out: KD, equilibrium dissociation constant as measured by surface plasmon resonance (SPR)
T1 construct: GST (N, cleaved yes); made in house; host or cells: E. coli BL21(DE3), co-expressed with pGro7
T1 sequence (O75530 76-441 limits assumed): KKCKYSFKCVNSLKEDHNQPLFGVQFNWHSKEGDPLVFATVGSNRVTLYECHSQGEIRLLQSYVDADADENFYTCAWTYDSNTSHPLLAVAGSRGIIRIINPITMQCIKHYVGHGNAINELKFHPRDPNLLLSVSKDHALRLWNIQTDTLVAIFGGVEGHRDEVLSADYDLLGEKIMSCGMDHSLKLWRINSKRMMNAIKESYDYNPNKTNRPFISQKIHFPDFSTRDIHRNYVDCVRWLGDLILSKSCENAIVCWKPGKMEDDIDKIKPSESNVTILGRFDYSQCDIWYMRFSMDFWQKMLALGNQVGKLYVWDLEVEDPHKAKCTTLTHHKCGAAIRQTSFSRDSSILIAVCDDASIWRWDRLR
Procedure, shortened: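 Biotinylated AVI-EED(76-441) from E. coli was captured on Biotin CAPture chips (2200–2400 RU) in 10 mM HEPES pH 7.4, 150 mM NaCl, 0.05% Tween 20 and 2% DMSO. Compounds were run at 7 concentrations (3-fold dilutions) with 90 s association and 180 s dissociation, chip at 25 °C. Data were fitted to a 1:1 binding model.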

| Compound | IC50 (EZH2/PRC2 complex) [nM] | Kd [1] [nM] |
| --- | --- | --- |
| Cc1ncccc1-c1cc2c(n3cnnc13)NCc1c(F)cccc1CCO2 [Compound 5, 12-fluoro-4-(2-methylpyridin-3-yl)-7,8,13,14-tetrahydro-[1,2,4]triazolo[4′,3′:1,6]pyrido[3,2-b]benzo[f][1,4]oxazonine] | 25 to 50 | 5 to 10 |
| Cc1ncccc1-c1cc2c(n3cnnc13)NCc1c(F)cccc1COC2 [Compound 6, 12-fluoro-4-(2-methylpyridin-3-yl)-6,8,13,14-tetrahydro-[1,2,4]triazolo[4′,3′:1,6]pyrido[3,2-c]benzo[g][1,5]oxazonine] | > 500 | > 50 |
| c1cc2c3c(c1)OC[C@H]3COc1ccc3nncn3c1NC2 [Compound 11, (S)-7a,8,13,14-tetrahydro-7H-[1,2,4]triazolo[4′,3′:1,6]pyrido[3,2-b]benzofuro[4,3-fg][1,4]oxazonine] | 100 to 500 | > 50 |
| Cc1ncc(-c2cc3c(n4cnnc24)NCc2c(F)cccc2CCO3)c(C)n1 [Compound 14, 4-(2,4-dimethylpyrimidin-5-yl)-12-fluoro-7,8,13,14-tetrahydro-[1,2,4]triazolo[4′,3′:1,6]pyrido[3,2-b]benzo[f][1,4]oxazonine] | 50 to 100 | 10 to 50 |
| Fc1ccc2c3c1CNc1c(cc(Br)c4nncn14)OC[C@@H]3CO2 [Compound 165, (S)-4-bromo-12-fluoro-7a,8,13,14-tetrahydro-7H-[1,2,4]triazolo[4′,3′:1,6]pyrido[3,2-b]benzofuro[4,3-fg][1,4]oxazonine] | < 25 | 10 to 50 |
| Cn1nc(OC(F)F)cc1-c1cc2c(n3cnnc13)NCc1c(F)ccc3c1[C@@H](CO3)CO2 [Compound 167, (S)-4-(3-(difluoromethoxy)-1-methyl-1H-pyrazol-5-yl)-12-fluoro-7a,8,13,14-tetrahydro-7H-[1,2,4]triazolo[4′,3′:1,6]pyrido[3,2-b]benzofuro[4,3-fg][1,4]oxazonine] | < 25 | < 2.5 |
| Cn1nc(F)cc1-c1cc2c(n3cnnc13)NCc1c(F)ccc3c1[C@@H](CO3)CO2 [Compound 168, (S)-12-fluoro-4-(3-fluoro-1-methyl-1H-pyrazol-5-yl)-7a,8,13,14-tetrahydro-7H-[1,2,4]triazolo[4′,3′:1,6]pyrido[3,2-b]benzofuro[4,3-fg][1,4]oxazonine] | < 25 | < 2.5 |
| Cn1nc(C(C)(C)C#N)cc1-c1cc2c(n3cnnc13)NCc1c(F)ccc3c1[C@@H](CO3)CO2 [Compound 169, (S)-2-(5-(12-fluoro-7a,8,13,14-tetrahydro-7H-[1,2,4]triazolo[4′,3′:1,6]pyrido[3,2-b]benzofuro[4,3-fg][1,4]oxazonin-4-yl)-1-methyl-1H-pyrazol-3-yl)-2-methylpropanenitrile] | < 25 | < 2.5 |
| Cn1nccc1-c1cc2c(n3cc(C#N)nc13)NCc1c(F)ccc3c1[C@@H](CO3)CO2 [Compound 172, (S)-5-fluoro-12-(1-methyl-1H-pyrazol-5-yl)-6,7,15,15a-tetrahydro-1H-benzofuro[4,3-fg]imidazo[r,2′:1,6]pyrido[3,2-b][1,4]oxazonine-10-carbonitrile] | < 25 | < 2.5 |
| Cn1nccc1-c1cc2c(n3cc(C(N)=O)nc13)NCc1c(F)ccc3c1[C@@H](CO3)CO2 [Compound 175, (S)-5-fluoro-12-(1-methyl-1H-pyrazol-5-yl)-6,7,15,15a-tetrahydro-1H-benzofuro[4,3-fg]imidazo[r,2′:1,6]pyrido[3,2-b][1,4]oxazonine-10-carboxamide] | < 25 | < 2.5 |

The next lines start with the values.

| IC50 (EZH2/PRC2 complex) [nM] | Kd [1] [nM] | Compound |
| --- | --- | --- |
| < 25 | < 2.5 | Cc1ncccc1-c1cc2c(n3cnnc13)NCc1cccc3c1[C@H](CO3)CO2 [Compound 1, (15R)-10-(2-methyl-3-pyridyl)-13,17-dioxa-3,5,7,8-tetrazapentacyclo[13.6.1.04,12.05,9.018,22] docosa-1(22),4(12),6,8,10,18,20-heptaene] |
| < 25 | < 2.5 | CC(=O)N1CCC(c2cc3c(n4cnnc24)NCc2cccc4c2[C@@H](CO4)CO3)CC1 [Compound 3, (S)-1-(4-(7a,8,13,14-tetrahydro-7H-[1,2,4]triazolo[4′,3′:1,6]pyrido[3,2-b]benzofuro[4,3-fg][1,4]oxazonin-4-yl)piperidin-1-yl)ethan-1-one] |
| < 25 | 10 to 50 | CC(=O)N1CCC(c2cc3c(n4cnnc24)NCc2c(F)cccc2CCO3)CC1 [Compound 4, 1-(4-(12-fluoro-7,8,13,14-tetrahydro-[1,2,4]triazolo[4′,3′:1,6]pyrido[3,2-b]benzo[f][1,4]oxazonin-4-yl)piperidin-1-yl)ethan-1-one] |
| < 25 | 10 to 50 | Cn1cc(Cc2cc3c(n4cnnc24)NCc2cccc4c2[C@@H](CO4)CO3)cn1 [Compound 7, (S)-4-((1-methyl-1H-pyrazol-4-yl)methyl)-7a,8,13,14-tetrahydro-7H-[1,2,4]triazolo[4′,3′:1,6]pyrido[3,2-b]benzofuro[4,3-fg][1,4]oxazonine] |
| < 25 | 5 to 10 | Cn1cc(Cc2cc3c(n4cnnc24)NCc2c(F)ccc4c2[C@@H](CO4)CO3)cn1 [Compound 10, (S)-12-fluoro-4-((1-methyl-1H-pyrazol-4-yl)methyl)-7a,8,13,14-tetrahydro-7H-[1,2,4]triazolo[4′,3′:1,6]pyrido[3,2-b]benzofuro[4,3-fg][1,4]oxazonine] |
| < 25 | 2.5 to 5 | Fc1ccc2c3c1CNc1c(cc(C4COC4)c4nncn14)OC[C@@H]3CO2 [Compound 12, (S)-12-fluoro-4-(oxetan-3-yl)-7a,8,13,14-tetrahydro-7H-[1,2,4]triazolo[4′,3′:1,6]pyrido[3,2-b]benzofuro[4,3-fg][1,4]oxazonine] |
| < 25 | < 2.5 | Cc1ncc(-c2cc3c(n4cnnc24)NCc2c(F)ccc4c2[C@@H](CO4)CO3)c(C)n1 [Compound 13, (S)-4-(2,4-dimethylpyrimidin-5-yl)-12-fluoro-7a,8,13,14-tetrahydro-7H-[1,2,4]triazolo[4′,3′:1,6]pyrido[3,2-b]benzofuro[4,3-fg][1,4]oxazonine] |
| < 25 | < 2.5 | Cc1cn(-c2cc3c(n4cnnc24)NCc2c(F)ccc4c2[C@@H](CO4)CO3)cn1 [Compound 15, (S)-12-fluoro-4-(4-methyl-1H-imidazol-1-yl)-7a,8,13,14-tetrahydro-7H-[1,2,4]triazolo[4′,3′:1,6]pyrido[3,2-b]benzofuro[4,3-fg][1,4]oxazonine] |
| < 25 | < 2.5 | COC(=O)N1CCC(c2cc3c(n4cnnc24)NCc2c(F)ccc4c2C(CO4)CO3)CC1 [Compound 16, methyl (S)-4-(12-fluoro-7a,8,13,14-tetrahydro-7H-[1,2,4]triazolo[4′,3′:1,6]pyrido[3,2-b]benzofuro[4,3-fg][1,4]oxazonin-4-yl)piperidine-1-carboxylate] |
| < 25 | < 2.5 | Fc1cncnc1-c1cc2c(n3cnnc13)NCc1c(F)ccc3c1[C@@H](CO3)CO2 [Compound 164, (S)-12-fluoro-4-(5-fluoropyrimidin-4-yl)-7a,8,13,14-tetrahydro-7H-[1,2,4]triazolo[4′,3′:1,6]pyrido[3,2-b]benzofuro[4,3-fg][1,4]oxazonine] |
